From patent US5811463A, “Compositions and method for relaxing smooth muscles” (University of British Columbia, priority 1996, dated 1998)

Columns and labels:
[1] = test system: phenylephrine pre-constricted rat aortic rings; test: Relaxation of phenylephrine pre-constricted rat aortic rings in vitro; parameters: species or system rat (Sprague-Dawley); details: phenylephrine 10^-6 M pre-constricted rat aortic rings; for EC50: read-out: In vitro EC50 (effective concentration to produce a 50% relaxation response)
From the text: As noted above, the present invention also provides methods for relaxing smooth muscle in a warm-blooded animal (e.g., humans, chimps, cows, goats, pigs, dogs, cats, rats or mice) comprising the step of administering to the animal a therapeutically effective amount of a transition-metal nitrosyl complex as described above. Briefly, the efficacy (and therapeutically effective amount) of a particular transition-metal nitrosyl complex may be readily determined by both in vitro and in vivo techniques. See generally Blattner et al., Experiments on Isolated Smooth Muscle Preparations, Hugo Sachs Elektronik KG, 1980 (incorporated herein by reference in its entirety). For example, within one embodiment, a small animal such as a rat, rabbit, or guinea-pig is sacrificed and exsanguinated. The required tissue (e.g., artery, vein, stomach, ileum, jejunum, caecum, colon, uterus, spleen, trachea, seminal vesicle, ductus deferens, or corpus cavernosum) is removed and placed in an oxygenated physiological solution (e.g., Krebs or Tyrode solution). This tissue is then cut such that one end is attached to the bottom of a muscle bath, and the other end to a force-displacement transducer (for example, Grass FT-03-C, Quincy, Mass.) for isometric recording with a physiological recorder (Grass, Model 79G). An appropriate pre-load (0.5 to 10 grams, depending on the tissue) is then applied, and the tissue equilibrated in the bath for one hour prior to the start of the study.
The measurement of smooth muscle contractile response may then be performed essentially as described by Pang and Sutter in Blood Vessels 17:293-301, 1980 (incorporated herein by reference in its entirety). Briefly, a dose-response curve of an agonist (e.g., phenylephrine, norepinephrine) is first obtained by measuring contractile response of the muscle as a function of agonist concentration. Response to the agonist is then measured beginning with the addition of the lowest dose of agonist to the bath. Each dose is equilibrated in the bath for 2 to 6 minutes in order to assure a steady state response, prior to proceeding to the next higher dose.
Measurement of the effectiveness of smooth muscle relaxant compositions may then be determined by measurement of the smooth muscle relaxation response, in a manner analogous to contractile response. See generally Wang, Poon and Pang, J. Pharm. Exp. Ther. 265:112-119, 1993 (incorporated herein by reference in its entirety). Briefly, tissue is first contracted with an agonist such as phenylephrine, usually at a concentration which results in 90% of the tissue's maximum contractile response (referred to EC90). At the steady state phase of the contractile response to the agonist, a cumulative dose-response curve for the smooth muscle relaxant may be determined. For each concentration of relaxant, a steady state is achieved and the relaxation response measured. […] For example, the EC50 of a relaxant is the effective concentration of the relaxant required to relax a pre-contracted muscle to 50% of its maximum contractile response.
(§1) Examples 5-7 present in vitro and in vivo results of the evaluation of the efficiency of the transition-metal nitrosyl complexes in relaxing blood vessels and lowering blood pressure. Sprague-Dawley rats (300-400g) were used for all experiments. Each group consisted of 1-6 rats for the in vivo experiments and 3-6 aortic rings for the in vitro experiments. Each aortic ring was from a different rat.
Example 5 presents the results of the evaluation of the efficacy of the transition metal nitrosyl complexes in blood vessel relaxation. In these in vitro experiments, phenylephrine pre-constricted rat aortae were subjected to increasing doses of the transition-metal nitrosyl complexes, and the relaxation of the rat aortae measured. […]

[2] = test system: mean arterial pressure in conscious rats; test: Depression of mean arterial pressure in conscious rats in vivo; parameters: species or system rat (Sprague-Dawley); details: intravenous bolus
Description: Likewise, in vivo tests may also be readily developed and utilized in order to determine the efficacy (and therapeutically effective amount) of the transition-metal nitrosyl complexes described above. For example, within one aspect of the present invention, a series of transition-metal nitrosyl complexes were tested in vivo for their ability to reduce the mean arterial blood pressure of conscious rats in vivo. Briefly, as described in greater detail below in Example 6, conscious, unrestrained rats were intravenous bolus injected with the transition-metal nitrosyl complexes. Five of the complexes were determined to dose-dependently reduce mean arterial pressure with maximum depressor effects which ranged from -36 to -59 mm Hg. Maximum depressor effects of sodium nitroprusside and nitroglycerin under similar conditions were -58 and -56 mm Hg, respectively. […] The results of the effects of the transition-metal nitrosyl complexes on the depression of mean arterial pressure in conscious rats in vivo are summarized in Example 5 and Table 1.
as §1
Example 6 describes the results of the determination of the efficacy of the transition-metal nitrosyl complexes in reducing blood pressure of conscious, unrestrained rats. In these in vivo experiments, the depression of rat arterial pressure was measured as a function of transition-metal nitrosyl complex dose. Dose-response (pressure depression) curves were constructed and the capacities of the transition-metal nitrosyl complexes to reduce arterial pressure were compared and related to nitroglycerin and sodium nitroprusside. The results of these experiments are reported in terms of ED50 (effective dose to produce a 50% pressure depression response) and Emax (maximum decrease in blood pressure) and are summarized in Example 5, Table 1.
(§2) The rats were anaesthetized with halothane (4% in air for induction and 1.5% in air for surgery). A polyethylene cannula (PE50) was inserted into the left iliac artery for the measurement of mean arterial pressure (MAP) by a pressure transducer (P23DB, Gould Statham, Calif.). A PE50 cannula was also inserted into the iliac vein for the administration of the vehicle or a drug. The rats were then put into a small cage and given>6 hr to recover from the effects of anaesthesia and surgery before use. The rats were allowed to move freely during the recovery phase as well as during the conduction of the experiments as described in Wang and Pang, Br. J. Pharmacol. 103:2004-8, 1991. Only one dose-response curve of a metal nitrosyl complex, sodium nitroprusside, nitroglycerin or vehicle (0.9% NaCl solution or dimethylsulfoxide solution) was constructed in each rat. All drugs or vehicle were intravenous bolus injected at dose-intervals of 3-7 min, to allow the recovery of depressor responses, before the injection of the next higher dose.

conscious rats = test: Toxic dose (convulsion / death) in conscious rats in vivo; parameters: species or system rat (Sprague-Dawley); unit not given here; details: intravenous bolus; for Toxic dose: dose which caused convulsion: footnote a; for Toxic dose: dose which caused neither convulsion nor death: footnote c
From the text: as §1
^a denotes dose which caused convulsion
^b denotes dose which caused death
^c denotes dose which caused neither convulsion nor death.
as §2

[3] = test system: phenylephrine-preconstricted rat aortic rings; test: Tolerance: relaxation of rat aortic rings after pre-incubation with CpCr(NO)2 Cl or nitroglycerin; parameters: species or system rat (Sprague-Dawley); details: 1 h
From the text: In addition to determining efficacy of transition-metal nitrosyl complexes in either in vitro or in vivo tests, it is also generally preferably to determine whether the composition induces tolerance. For example, within one embodiment of the invention, induction of tolerance by the transition-metal nitrosyl complex described above may be readily determined by exposing rat aortic rings to a transition-metal nitrosyl complex prior to relaxation determinations. More specifically, as described in greater detail 10 below in Example 7, intact rat aortic rings were pre-incubated with a typical transition- metal nitrosyl complex for one hour prior to examination of its concentration-relaxation effect in phenylephrine-preconstricted conditions. Unlike the relaxation response of nitroglycerin, the relaxation response of the transition-metal nitrosyl complexes was not diminished by pre-exposure of the aortic ring to the complex.
as §1
Example 7 presents the results of pre-exposing the rat aortae to the transition-metal nitrosyl complexes to evaluate the development of tolerance. In these experiments, the rat aortic rings were pretreated with a transition-metal nitrosyl complex prior to the measurement of dose-dependent relaxation as described above in Example 5.
In this study, the vehicles, CpCr(NO)2 Cl (10^-6 M), or nitroglycerin (3×10^-4 M) was added to the baths for 1 h, followed by the washout of drug or vehicle, preconstriction with phenylephrine and the construction of a concentration-relaxation curve of CpCr(NO)2 Cl.

blood vessels = details: cited from earlier work
[4] = pre-incubation nitroglycerin 3×10^-4 M

Compound	In vitro Emax (percent relaxation of phenylephrine-induced contraction) [1] [%]	EC50 [1] [µM]	In vivo ED50 (effective dose to produce a 50% pressure depression response) [2] [mg/kg]	In vivo Emax (maximum decrease in blood pressure) [2] [mmHg]	Toxic dose: dose which caused convulsion (conscious rats)	other results
O=N[O][Cr+]([N]=O)[N]=O.c1cc[cH-]c1 [CpCr(NO)2 (ONO), Nitrito(.eta.^5 -cyclopentadienyl)dinitrosylchromium]	-98	0.1	0.0015	-45	1280	
O=[N][Cr+]([Cl])[N]=O.c1cc[cH-]c1 [CpCr(NO)2 Cl]	-118	0.11	0.0044	-42	2,000	effect of pre-incubation with CpCr(NO)2 Cl on EC50 and Emax ([3]; pre-incubation CpCr(NO)2 Cl 10^-6 M): did not alter the EC50 or Emax; effect of pre-incubation with nitroglycerin on EC50 and Emax ([3]; pre-incubation nitroglycerin 3×10^-4 M, cross-tolerance): did not alter the EC50 or Emax
C1CCNCC1.O=[N][Cr+][I].c1cc[cH-]c1 [CpCr(NO)(pip)I]	-110	0.45				
O=[N][Mo+]([Cl])[N]=O.c1cc[cH-]c1 [CpMo(NO)2 Cl, chloro(.eta.^5 -cyclopentadienyl)nitrosylmolybdenum]	-113	17	0.4	-59		Toxic dose: dose which caused death (conscious rats; footnote b): 25,600
O=[N][W+]([Cl])[N]=O.c1cc[cH-]c1 [CpW(NO)2 Cl]	-122	2	2.976	-36		Toxic dose: dose which caused neither convulsion nor death (conscious rats): 40,000
O=[N][W+].[C-]#[O+].[C-]#[O+].c1cc[cH-]c1 [CpW(NO)(CO)2, dicarbonyl(.eta.^5 -cyclopentadienyl)nitrosyltungsten]	-107	2.5			500	In vivo Emax (maximum decrease in blood pressure), in words ([2]; biphasic denotes depressor followed by pressor response): biphasic
O=[N+]([O-])OCC(CO[N+](=O)[O-])O[N+](=O)[O-] [Nitroglycerin, glyceryl trinitrate, reference compound]		0.3		-56		Emax ([1]; read-out: In vitro Emax (percent relaxation of phenylephrine-induced contraction)): -104%; ED50 ([2]; Rattus norvegicus, read-out: In vivo ED50 (effective dose to produce a 50% pressure depression response)): 0.2 mg/kg; maximum depressor effect [2]: -56 mm Hg; effect of pre-incubation with nitroglycerin on EC50 [3, 4]: EC50 significantly increased; effect of pre-incubation with nitroglycerin on Emax [3, 4]: Emax unaltered; tolerance on continual exposure (blood vessels): reduction in the ability of these compounds to vasodilate blood vessels
O=[N][Fe]1([N]=O)[I][Fe]([N]=O)([N]=O)[I]1 [[Fe(NO)2 I]2, Iodo(dinitrosyl)iron Dimer]	-108	20	0.554	-51		Toxic dose: dose which caused neither convulsion nor death (conscious rats): 5120
